Test results reported in patent publication US20230381343A1, “Treatment for Intraocular Pressure Related Disorders” (Mayo Foundation for Medical Education and Research, priority 2021, published 2023).

What was measured:
C57BL/6J mice = experiment: Aqueous outflow parameters by constant flow infusion; type: in vivo, mouse; conditions: 6 weeks post intracameral injection, treatment day 5 for topical
From the text: To determine the effects of ssAAV2-smCBA-STC-1-FLAG on parameters of aqueous outflow, 3-month old C57BL/6J mice were separately treated with the following: 1) intracameral ssAAV2-smCB A-STC-1-FLAG (n=5), 2) intracameral ssAAV2-smCBA-GFP (n=5), 3) topical recombinant human STC-1 (n=4; Biovender Research and Diagnostic Products, Czech Republic) (Roddy et al., Invest Ophthalmol Vis Sci. 58:2715-24(2017); Roddy et al., PLoS ONE. 15(2020)), 4) topical latanoprost free acid (LFA; n=5; Cayman Chemical, Ann Arbor, MI), or 5) untreated mice (n=4). Mice that received topical treatments were treated with once daily topical doses of STC-1 (5 μl of 0.5 μg/μl) or LFA (10^-4 M) for 5 days prior to aqueous outflow experiments. Mice that received intracameral injections were treated 6 weeks prior to aqueous outflow measurements. Aqueous outflow was assessed using the protocols previously established (Millar et al., Invest Ophthalmol Vis Sci. 52:685-94(2011); Roy Chowdhury et al., Invest Ophthalmol Vis Sci. 58:5731-42(2017)). Briefly, a 33-g needle was used to cannulate the anterior chamber of anesthetized mice. The needle was connected to a flow-through pressure transducer (World Precision Instruments, Sarasota, FL) that was also connected to an SP101i microdialysis infusion pump (World Precision Instruments) and an open-ended, variable-height, raised reservoir manometer. Episcleral venous pressure was obtained by visualizing the reflux of blood into Schlemm's canal by direct ophthalmoscopy as the reservoir was lowered. Outflow facility was determined by slowly increasing the flow rate with the infusion pump and recording the pressure. Uveoscleral outflow was calculated when the inflow is presumed to be zero immediately after animal sacrifice. Aqueous humor formation was then estimated by using the modified Goldmann equation, i.e. aqueous formation rate=[outflow facility X (IOP−episcleral venous pressure)]+uveoscleral outflow as previously described (Millar et al., Invest Ophthalmol Vis Sci. 52:685-94(2011)). To validate the calculated IOP values based on the Goldman equation, IOP was also assessed with a handheld rebound tonometer. All data were recorded and analyzed using LabScribe software (World Precision Instruments).

[1] = test system: mouse model of experimental autoimmune uveitis; experiment: Experimental autoimmune uveitis (EAU), topical treatment; type: in vivo; conditions: daily topical
Experimental: Following induction of experimental autoimmune uveitis (EAU), mice were treated daily with topical latanoprost free acid (LFA; 100 μM) or STC-1 (0.5 μg/mL) in one eye and vehicle in the other eye. At day 18, OCT was performed and retinal thickness was measured in a masked manner. At day 21, eyes were enucleated and processed for hematoxylin and eosin (H&E) staining.
Experimental autoimmune uveitis (EAU) was induced in the C57B/6 mouse with a protocol described elsewhere (see, e.g., Avichezer et al., Invest. Ophthalmol. Vis. Sci., 41(1):127-31 (2004)). Briefly, human interphotoreceptor retinoid binding protein (IRBP) in complete Freund's adjuvant was injected subcutaneously and pertussis toxin was injected intraperitoneally as an additional immune stimulus.

wild-type C57BL/6J mice = experiment: Steroid-induced (dexamethasone) ocular hypertension model, topical treatment; type: in vivo, mouse
From the text: All studies were approved by the Mayo Clinic (Rochester, MN) IACUC and adhered to ARVO guidelines. […] In the final phase of the experiment (experimental weeks 7-9, treatment weeks 4-6), dexamethasone-injected animals in Group 2 continued to receive topical STC-1 while treatment was halted in the vehicle-injected fellow eye for a medication wash-out period (FIG. 22). For statistical purposes, the final week of each condition was selected (i.e. weeks 3, 6, and 9) for analysis. To determine if a difference in IOP was present among groups at week 6 and 9, a Kruskal-Wallis test was performed. An unpaired t-test was used to directly compare the two groups. Values for all statistical tests were considered significant at P<0.05.
For both models histologic analysis was performed.

[2] = one eye, IOP 33 mmHg at 12 months after plaque
From the text: Records were reviewed for patient demographics, clinical tumor features, treatment parameters, and outcomes, with attention to IOP and optic disc features.

Compound: O=C(O)CCC/C=C\C[C@@H]1[C@@H](CC[C@@H](O)CCc2ccccc2)[C@H](O)C[C@@H]1O [LFA, latanoprost free acid]
- Episcleral venous pressure (C57BL/6J mice): 10.0 ± 2.4 mmHg
- Outflow facility (C57BL/6J mice): 0.046 ± 0.02 μL/min/mmHg
- Uveoscleral outflow (C57BL/6J mice): 0.046 ± 0.02 µL/min
- Calculated IOP (C57BL/6J mice; Goldmann equation): 14.0 ± 1.9 mmHg
- Measured IOP (C57BL/6J mice; rebound tonometer): 13.2 ± 0.9 mmHg
- Retinal thickness by OCT vs vehicle control eye ([1]; day 18): no significant difference in retinal thickness
- Vitreous inflammatory cells (H&E) ([1]; day 21): trend toward greater vitreous cell

Compound: CC(=O)OCC(=O)[C@@]1(O)[C@H](C)C[C@H]2[C@@H]3CCC4=CC(=O)C=C[C@]4(C)[C@@]3(F)[C@@H](O)C[C@@]21C [dexamethasone, dexamethasone acetate]
- IOP (wild-type C57BL/6J mice; PBS-treated dexamethasone-injected eyes, week 6, n=8): 19.5±1.7 mmHg
- IOP (wild-type C57BL/6J mice; PBS-treated dexamethasone-injected eyes, week 9, n=8): 19.7±1.3 mmHg
- Increase in IOP vs vehicle-injected eyes (wild-type C57BL/6J mice; after 3 weekly conjunctival fornix injections, n=18): 18%
- IOP (wild-type C57BL/6J mice; dexamethasone-injected eyes, week 3, n=18): 19.7±1.8 mmHg
- IOP change vs PBS-treated vehicle-injected eyes (wild-type C57BL/6J mice; week 6, n=8): 25%

Compound: dorzolamide hydrochloride-timolol maleate
- Response of IOP spike to topical therapy [2]: responded
